Several values for one entry are separate records, joined by “and”; a condition that tells them apart may be missing. Equal entries are not always repeated.
Assays:
[1] = target: T1, Alpha-2A adrenergic receptor (Homo sapiens, UniProt P08913)
T1 sequence (P08913 whole entry): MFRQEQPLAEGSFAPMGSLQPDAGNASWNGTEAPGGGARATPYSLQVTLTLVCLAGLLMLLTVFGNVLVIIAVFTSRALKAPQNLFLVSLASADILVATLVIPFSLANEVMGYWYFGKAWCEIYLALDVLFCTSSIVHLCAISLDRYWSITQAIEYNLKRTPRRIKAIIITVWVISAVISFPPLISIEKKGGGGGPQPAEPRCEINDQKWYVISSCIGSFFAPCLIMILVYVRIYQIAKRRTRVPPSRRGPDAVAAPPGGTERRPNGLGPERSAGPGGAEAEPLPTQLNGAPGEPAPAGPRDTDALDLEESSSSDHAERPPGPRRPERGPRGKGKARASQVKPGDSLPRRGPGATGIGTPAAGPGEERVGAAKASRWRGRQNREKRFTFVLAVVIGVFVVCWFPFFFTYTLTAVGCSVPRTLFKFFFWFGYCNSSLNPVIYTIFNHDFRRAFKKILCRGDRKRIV

[2] = target: T2, Alpha-2A adrenergic receptor [16-465] (Rattus norvegicus, UniProt P22909)
T2 construct: 16-465
T2 sequence (P22909 whole entry): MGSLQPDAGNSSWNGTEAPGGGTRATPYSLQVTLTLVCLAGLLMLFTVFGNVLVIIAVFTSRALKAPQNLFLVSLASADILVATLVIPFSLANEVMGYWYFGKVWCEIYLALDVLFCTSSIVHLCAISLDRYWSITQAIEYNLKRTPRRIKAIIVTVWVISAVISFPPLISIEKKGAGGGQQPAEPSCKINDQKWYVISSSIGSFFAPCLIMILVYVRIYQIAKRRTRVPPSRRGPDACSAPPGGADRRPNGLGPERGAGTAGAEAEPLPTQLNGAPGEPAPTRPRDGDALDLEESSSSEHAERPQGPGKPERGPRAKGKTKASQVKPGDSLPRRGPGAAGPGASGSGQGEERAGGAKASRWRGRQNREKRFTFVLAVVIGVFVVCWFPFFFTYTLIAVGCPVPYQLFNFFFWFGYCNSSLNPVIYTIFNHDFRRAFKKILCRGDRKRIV

[3] = target: T3, Alpha-2B adrenergic receptor (Oryctolagus cuniculus, UniProt O77830)
T3 sequence (O77830 whole entry): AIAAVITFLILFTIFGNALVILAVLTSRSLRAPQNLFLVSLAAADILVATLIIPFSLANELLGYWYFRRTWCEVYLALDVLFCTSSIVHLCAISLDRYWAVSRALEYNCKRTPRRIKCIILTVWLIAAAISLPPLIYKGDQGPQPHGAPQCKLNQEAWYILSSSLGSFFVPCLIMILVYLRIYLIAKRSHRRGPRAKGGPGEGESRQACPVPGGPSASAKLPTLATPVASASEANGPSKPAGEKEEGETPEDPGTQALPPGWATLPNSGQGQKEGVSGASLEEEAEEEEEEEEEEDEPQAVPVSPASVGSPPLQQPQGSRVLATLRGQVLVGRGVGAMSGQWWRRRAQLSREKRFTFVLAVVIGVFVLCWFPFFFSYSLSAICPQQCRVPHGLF

| SMILES | Ki [1] [nM] | Ki [2] [nM] | Ki [3] |
| --- | --- | --- | --- |
| COc1cccc(OC)c1OCCNCC1Oc2ccccc2OC1c1ccccc1 (stereo not given) [NSC_185453] | 3.5 | 142 | 5.3 nM and 11.8 nM |
| COC1(C2=NCCN2)COc2ccccc2O1 (stereo not given) [RX821002] |  | 0.95 | 7.3 nM and 6.4 nM |
| CN(C)CCCN1c2ccccc2Sc2ccc(Cl)cc21 [[3-(2-Chloro-phenothiazin-10-yl)-propyl]-dimethyl-amine(Chlorpromazine)] |  |  | 2690 nM and 3130 nM |
| COc1cc2nc(N3CCN(C(=O)c4ccco4)CC3)nc(N)c2cc1OC [[3H]-Minipress] |  |  | > 10000 nM |
| Cc1ccc(N(CC2=NCCN2)c2cccc(O)c2)cc1 [SMR000059054] |  |  | 24.1 nM and 18.4 nM |
| O=C1NCN(c2ccccc2)C12CCN(CC1COc3ccccc3O1)CC2 (stereo not given) [8-(2,3-Dihydro-benzo[1,4]dioxin-2-ylmethyl)-1-phenyl-1,3,8-triaza-spiro[4.5]decan-4-one] | 28.3 | 92 | 169 nM and 129 nM |
| CN1C[C@H](Cn2ccnc2-c2ccccc2)C[C@@H]2c3cccc4[nH]c(Br)c(c34)C[C@H]21 [BAM-1303] | 18.1 | 313 | 95.3 nM and 46 nM |
| CC(C)=CCOc1ccc(Cl)c2c1CCN(C)CC2 [SK&F-104078] | 30.4 | 244 | 292 nM and 191 nM |
| Cc1cc(C(C)(C)C)c(O)c(C)c1CC1=NCCN1 [SMR000059324] |  |  | 6.3 nM and 4.5 nM |
| COC(=O)C1=COC(C)C2CN3CCc4c([nH]c5ccccc45)C3CC12 (stereo not given) [Ajmalicine] | 47.6 | 1470 | 376 nM and 429 nM |
| COc1ccccc1N1CCN(CCC2C(=O)c3ccccc3C(C)(C)C2=O)CC1 (stereo not given) [NSC_122211] | 373 | 484 | > 10000 nM |
| NCC(O)c1ccc(O)c(O)c1 (stereo not drawn) [Noradrenaline,(+)] |  |  | 284 nM and 57 nM |
